One molecule from patent publication US20110021471A1, “REDUCING Abeta42 LEVELS AND Abeta AGGREGATION” (priority 2007, published 2011) can be followed below.

The target in one test is T1, APP(C100)-Flag (Homo sapiens, UniProt P05067).
T1 construct: APP(C100)-Flag, comprising the 99 C-terminal residues of APP plus a methionine at the N-terminus; added methionine (N)
Description: Photoaffinity labelling of APP(C100)-Flag and competition. The format is binding. On the procedure: FIG. 1. […] The top panel is for anti-biotin staining; the middle panel is for anti-FLAG staining; and the bottom panel is an overlay of anti-biotin (red and anti-Flag green, LiCor Odyssey imaging). (E) Same samples as in D, but analyzed using an ELISA. Following crosslinking, C100Flag and N100 Flag were captured using anti-FLAG plate, and biotin incorporation was measured using streptavidin-HRP. […] Fen-B (50 μM) was crosslinked to Aβ (10 μM). Biotin labeling was measured following capture with an anti-Aβ1-16 antibody and detection with streptavidin-HRP.
Photoaffinity labelling. All experiments used the following general protocol. Samples (recombinant or synthetic peptides, cell lysates and membrane preparations) were exposed in borosilicate test tubes to ultraviolet light (350 nm) in a Rayonet Photoreactor R100 (RPR-3500 lamps, Southern New England Ultra Violet Company) in a cold room (4° C.) for 30 minutes or as otherwise noted. Crosslinked samples were analyzed by ELISA for biotin incorporation, or analyzed directly by SDS-PAGE (Criterion-XT, Bio-Rad), or after precipitation with streptavidin ultralink plus beads (Pierce). After immunblotting, proteins were detected using chemiluminesence (ECL Plus, GEHealthcare) or near-infrared fluorescence (LiCor Odyssey). Full-length APP and APP CTFs (CTF83, CTF99) were detected with CT20, a rabbit polyclonal antibody against the C-terminus of APP. Biotin was detected with an affinity-purified rabbit polyclonal antibody (Bethyl). Cell-based screens for amyloid-β modulation. Human H4 neuroglioma cells (American Type Culture Collection, ATCC) expressing wild-type APP695 protein or CTF105 fused to secreted alkaline phosphatase which is efficiently processed to APP CTFs (CTF83, CTF99) and produce high levels of amyloid-β, were used for the cell-based screens as previously described. Cells were incubated for 5-6 hours in the presence of the various compounds in Opti-Mem culture medium containing 1% fetal bovine serum. Compounds were dissolved in dimethylsulphoxide (DMSO; 0.5% final concentration) and diluted 200-fold. Media was analyzed for various amyloid-β species (40, 42 and total) using ELISAs as described herein. The EC50 values for changes in amyloid-β species were calculated by fitting sigmoid dose-response curves using nonlinear regression in Prism (GraphPad) and are shown as values±s.e.m. Statistical analysis. Data are presented as either percentage control or mean±s.e.m. Results were analyzed using Prism (Graph Pad) with t-tests or one-way analysis of variance analyses (ANOVAs) with Dunnett's post-hoc correction for comparison of multiple samples to a control. Statistical significance is shown as P,0.05 (one asterisk), P,0.01 (two asterisks) or P,0.001 (three asterisks).
The ability of a purified, recombinant Flag-tagged γ-secretase substrate derived from APP (APP(C100)-Flag, comprising the 99 C-terminal residues of APP plus a methionine at the N-terminus) to be labeled by Fen-B and Flurbi-BpB was tested.

For the next test, the target named is Aβ(1-42) (Homo sapiens, UniProt P05067). Description: Fluorescence titration and saturation binding of Aβ(1-42) with X-34. On the procedure: Fluorescence titration and saturation binding of Aβ(1-42) with X-34. Incremental increases in fluorescence (ΔF) when Aβ(1-42) was included at the indicated total concentrations of X-34 were fitted to eq. 1.
(§1) Finally, X-34 was tested for its ability to modulate Aβ42 amounts in an APP transgenic mouse (Tg2576).

A further test concerns the target γ-secretase (Homo sapiens, UniProt P49768). Description: GSM activity of compounds that bind Aβ or Aβ amyloid (cell-based or cell-free γ-secretase assays, FIG. 12). Conditions: two doses (10 and 100 μM). How it is done:
A literature search was performed to identify compounds reported to bind to the Aβ peptide directly or amyloid. These candidates were initially tested in cell-based assays or cell-free in vitro γ-secretase assays at two doses (10 and 100 μM).
as §1

For a further test, the system named is H4 APPwt cells. Description: Immunoprecipitation-mass spectrometry of media from H4 APPwt cells. It counts as cell-based, human. On the procedure:
FIG. 14. Amyloid binding compounds alter the cleavage of Aβ similar to other established γ-secretase modulators Immunoprecipitation-mass spectrometry studies were conducted on media from H4 APPwt cells grown in the presence of test compounds for 16 hours. Conditions were: control (DMSO, 0.5%), sulindac sulfide (SS; 25 μM), chrysamine g (CG; 25 μM), and X-34 (25 μM). SS was included as a control GSM known to reduce Aβ42 and increase Aβ38. Spectra shown are representative of two experiments with 2-3 replicates each. Identified Aβ peptides based on calculated mass (m/z) are indicated above the peaks.

Test [1] relates to Human H4 neuroglioma cells expressing wild-type APP695 protein or CTF105. Description: Cell-based screens for amyloid-β modulation (H4 cells, ELISA). The conditions noted are these: for EC50: Homo sapiens, cellular dose-response. The text has this: Photoaffinity labelling. All experiments used the following general protocol. […] Cell-based screens for amyloid-β modulation. […] Statistical analysis.
In general terms: ELISA stands for enzyme-linked immunosorbent assay.

Like-named read-outs stand apart in the source and are kept apart here.

T1 sequence (P05067 672-770 limits assumed): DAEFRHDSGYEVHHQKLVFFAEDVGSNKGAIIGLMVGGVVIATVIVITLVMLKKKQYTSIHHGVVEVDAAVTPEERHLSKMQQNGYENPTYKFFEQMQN
Aβ(1-42), sequence (P05067 672-713 limits assumed): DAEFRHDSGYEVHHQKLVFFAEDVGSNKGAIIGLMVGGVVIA

The Kd is the equilibrium constant for the complex coming apart. A higher Kd goes with lower affinity. A word on the EC50: it is the midpoint of the concentration-response curve. `O=C(O)c1cc(C=Cc2ccc(C=Cc3ccc(O)c(C(=O)O)c3)cc2)ccc1O` [X-34, 1,4-bis(3-carboxy-4-hydroxyphenylethenyl)-benzene]: the “competition for binding of APP(C100)-Flag by Fen-B and Flurbi-BpB” value at APP(C100)-Flag is “competed”. At Aβ(1-42), this molecule displayed a Kd of 12.1 ± 4.7 µM. For the same molecule, the GSM activity entry on γ-secretase is “Aβ42-lowering”. Besides, in the test on H4 APPwt cells, the “shorter amyloid-β (IP-MS)” value was “increased amounts of shorter amyloid-β”. In the test on H4 APPwt cells (25 μM, 16 hours), the “Aβ33 levels (IP-MS)” value is listed as “raise Aβ33 levels more effectively than SS” and the “levels of Aβ42 (IP-MS)” value was “consistently decrease levels of Aβ42”. In addition, in test [1], the “total amyloid-β amounts” value is “did not decrease”. In addition, in test [1] (H4 cells expressing APP), the Aβ42 levels result was “decrease”. The EC50 in test [1] (read-out: EC50, lowering of Aβ40) turned out to be 60.7 µM. Also, in test [1] (read-out: EC50, lowering of Aβ42), the EC50 stood at 13.7 µM.
